Our source for the EC50 values is ChEMBL document CHEMBL1151119, “Isolation and structure of the cytostatic lignan glycoside phyllanthostatin A” (1988).

This assay concerns P388. In words: Cytotoxicity against mouse P388 cells. The format is functional. The following applies: read-out: ED50 (the source's name).

Values after ≈ are worked out from the molar mass of the structure shown.

With `COc1cc2cc(COC(C)=O)c(C(=O)O[C@@H]3O[C@H](CO)[C@@H](O)[C@H](O)[C@H]3O)c(-c3ccc4c(c3)OCO4)c2cc1OC` [PHYLLANTHOSTATIN A], the EC50 stood at 4 µg/mL (≈ 6.82 µM).
